What was measured:
[1] = target: Olfr45 (Mus musculus, UniProt A0JLW4); test: cell-based
Procedure: (§1) The olfactory epithelium-derived cell solution obtained above was subjected to centrifugation at 1000 rpm for 5 minutes (2420, KUBOTA Co.) to remove the supernatant, and to this, a Ca^2+ ringer solution containing […] Fluo4-AM (F312, Dojindo) and 0.02 wt % Pluronic F-127 (P6867, Molecular Probes) was then added. A polystyrene slide having about 400000 nano chambers with a diameter of […] for As OneCell Picking system (AS ONE Corporation; automated single-cell analysis and isolation system [equipped with temperature control system, time lapse system, perfusion system]; Yoshimoto, et al., Scientific Reports Vol. 3 (2013) 1191; hereinafter this can be referred to as “OneCell system” in the description) was immersed in 2% PVP (polyvinyl pyrrolidone (NACALAI TESQUE, INC.)) and then put on a perfusion jig for the OneCell system. […]
(§2) Subsequently, the slide was put on a prescribed site of the OneCell system and maintained with a Ca^2+ ringer solution having been circulated, and fluorescent images derived from Fluo-4 of each olfactory epithelium-derived cell included in the nano chambers were observed through 4×objective lens, and changes in fluorescence intensity over time were recorded. […]

[2] = target: T1, Olfr166 (Mus musculus, UniProt Q8VGX2); conditions: HG28-24 cells, stimulation by pyridine
Procedure: as §1, §2

[3] = target: T1, Olfr166; test: cell-based
Excerpt: (§3) In order to verify whether or not the mouse-derived olfactory receptors obtained in the above 3) and 4) surely respond to odor molecules used for screening, a system in which adenylate cyclase is activated from a olfactory receptor through heterotrimeric G protein including Gaolf to accumulate cAMP from ATP, and luciferase expression is induced in an intracellular cAMP concentration-dependent manner, was reconstructed in HEK 293 cells.
(§4) Specifically, each of mouse-derived olfactory receptor genes, Olfr168, Olfr205, Olfr45 and Olfr166, and DNA coding for the amino acid sequence shown in SEQ ID NO:9 were fused. The obtained genes were incorporated into pME18S plasmid incorporated into downstream of SRa promoter, a plasmid having a base sequence coding for the amino acid sequence shown in SEQ ID NO:2 to allow Gaolf to be expressed, a plasmid to allow Receptor-transporting protein 1S (RTP1S) having a base sequence shown in SEQ ID NO:6, which is a factor to raise the efficiency of presentation of olfactory receptors from the Golgi body to the cell surface, to be expressed, and a cAMP-responsive luciferase expressing plasmid pGlosensor-22 (Promega Corporation). The plasmids are introduced into HEK 293T cells by Lipofectamine 2000 (Life Technologies) to cause transient expression.

[4] = tested on: human-derived olfactory receptor; test: Human olfactory receptor-expressing cell array (404 sites, HEK293-C1/2 strain) on OneCell system; type: cell-based; conditions: concentration of 10 mM
Excerpt: In the substrate used, hydrophilicity is increased by plasma treatment of the surface of a slide glass (Matsunami Glass Ind., Ltd.) by a plasma modifier (PM100, Yamato Scientific Co., Ltd.) It should be noted that a machine used for dot printing is a LaboJet-500 manufactured by MicroJet. […] When the array is left to stand on specific culture conditions and observed after 2 days, it is expected that added HEK293-C1/2 strain is proliferated on the sites on which the plasmid has been immobilized to form colonies. After that, the substrate having formed colonies thereon is loaded on the above OneCell system in the method shown in 2).

[5] = target: Olfr1258 (Mus musculus, UniProt Q8VGN6); test: Reconstruction experiment: cAMP-responsive luciferase in HEK293 cells expressing Olfr1258; type: cell-based
[6] = target: T2, Olfr168 (Mus musculus, UniProt A0PK36); test: Fluo-4 Ca2+ uptake in isolated olfactory sensory neuron HI28-03 (calculation method (A)); type: cell-based; conditions: HI28-03 cells
T2 sequence (A0PK36 1-312): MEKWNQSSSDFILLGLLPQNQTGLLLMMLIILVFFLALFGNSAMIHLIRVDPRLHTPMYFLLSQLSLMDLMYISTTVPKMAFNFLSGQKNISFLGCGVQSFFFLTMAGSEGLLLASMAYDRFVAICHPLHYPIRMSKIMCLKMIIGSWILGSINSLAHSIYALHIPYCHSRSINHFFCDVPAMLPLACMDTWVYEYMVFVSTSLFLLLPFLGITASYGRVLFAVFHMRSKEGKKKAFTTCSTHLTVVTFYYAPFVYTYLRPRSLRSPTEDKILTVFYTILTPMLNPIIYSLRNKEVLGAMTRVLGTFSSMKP
Procedure: (§5) The olfactory epithelium-derived cells were stimulated as follows.
(§6) As a result, Olfr168 (mOR271-1; GenBank accession number: AY317252) and Olfr205 (mOR182-11P; GenBank accession number: BC150839) were identified in HI28-03 and HI25-18 respectively.
(§7) Specifically, the above Ca^2+ ringer solution was refluxed to the slide glass which had been put on the OneCell device and had stored olfactory epithelium-derived cells, and a Ca^2+ ringer solution containing 3 mM 2-pentanone described below was added thereto for 20 seconds every two minutes. The degree of increase in transient fluorescence intensity derived from Fluo-4 in each olfactory sensory neuron was repeatedly measured 5 times (FIG. 8).

[7] = target: T3, Olfr205 (Mus musculus, UniProt B9EKD6); test: Fluo-4 Ca2+ uptake in isolated olfactory sensory neuron HI25-18 (calculation method (A)); type: cell-based; conditions: HI25-18 cells
T3 sequence (B9EKD6 1-305): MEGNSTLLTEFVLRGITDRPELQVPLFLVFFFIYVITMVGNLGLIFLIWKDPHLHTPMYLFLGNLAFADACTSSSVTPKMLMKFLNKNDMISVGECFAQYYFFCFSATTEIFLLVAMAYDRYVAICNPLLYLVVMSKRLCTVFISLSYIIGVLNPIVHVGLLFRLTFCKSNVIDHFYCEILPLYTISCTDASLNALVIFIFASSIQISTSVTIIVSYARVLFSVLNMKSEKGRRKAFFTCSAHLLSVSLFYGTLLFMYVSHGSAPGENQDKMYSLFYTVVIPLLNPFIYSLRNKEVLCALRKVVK
Procedure: as §5, §6, §7

[8] = target: T3, Olfr205; test: Reconstruction experiment: cAMP-responsive luciferase in HEK293 cells expressing Olfr205; type: cell-based
Excerpt: as §3, §4

[9] = tested on: olfactory sensory neurons; test: OneCell system Fluo-4 screening of olfactory epithelium-derived cells stimulated by an odor molecule; type: cell-based, mouse; conditions: 2-pentanone (30 mM) for 10 seconds and (3 mM) for 10 seconds; of approximately 10000 olfactory sensory neurons
Procedure: C57/BL6J (male) aged 3 to 5 weeks were purchased from Japan SLC, Inc. The mice were beheaded after intravenous anesthesia with […] of Urethane solution (300 mg/mL; U2500, Sigma-Aldrich) and olfactory epithelium was extracted on ice. […] An equal amount of Ca^2+ ringer solution containing 0.1 mg/mL DNase I, 0.1 mg/mL BSA, and […] leupeptin (0.025 mg/mL trypsin inhibitor in the case of trypsin) was added thereto to stop the enzyme reaction, and the obtained solution then allowed to pass through a cell strainer twice to remove large tissue fragments.
The sample after removal was subjected to centrifugation treatment, and this was washed once to obtain an olfactory epithelium-derived cell solution.
as §5
The olfactory epithelium-derived cells were stimulated by an odor molecule, 2-pentanone (30 mM) for 10 seconds and 2-pentanone (3 mM) for 10 seconds under the above conditions, and olfactory sensory neurons included in olfactory epithelium-derived cells were then identified by a high K^+ ringer solution. As a result, approximately 100 of approximately 10000 olfactory sensory neurons reacted with 2-pentanone. […]

[10] = target: T2, Olfr168; test: Reconstruction experiment: cAMP-responsive luciferase in HEK 293T cells expressing Olfr168; type: cell-based; conditions: HEK 293T cells transiently expressing Olfr168, Gaolf, RTP1S, pGlosensor-22
Excerpt: as §3, §4

[11] = 3 mM 2-pentanone for 20 seconds every two minutes, measured 5 times
[12] = stimulation by 2-pentanone, experiment independently carried out 5 times, read-out: relative value of increased Fluo-4 fluorescence intensity (high K+ ringer depolarization considered 100%)

T1 sequence (Q8VGX2 1-312): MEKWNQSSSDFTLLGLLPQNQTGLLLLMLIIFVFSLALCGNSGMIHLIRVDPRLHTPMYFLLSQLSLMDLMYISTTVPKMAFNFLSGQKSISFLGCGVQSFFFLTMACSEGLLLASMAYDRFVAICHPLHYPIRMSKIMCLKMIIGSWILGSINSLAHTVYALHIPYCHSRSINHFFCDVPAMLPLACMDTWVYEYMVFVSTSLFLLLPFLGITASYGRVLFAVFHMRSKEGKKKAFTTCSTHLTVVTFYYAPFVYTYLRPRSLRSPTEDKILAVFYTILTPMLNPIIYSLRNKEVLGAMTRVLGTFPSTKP
Chain of Olfr45 (A0JLW4 1-311): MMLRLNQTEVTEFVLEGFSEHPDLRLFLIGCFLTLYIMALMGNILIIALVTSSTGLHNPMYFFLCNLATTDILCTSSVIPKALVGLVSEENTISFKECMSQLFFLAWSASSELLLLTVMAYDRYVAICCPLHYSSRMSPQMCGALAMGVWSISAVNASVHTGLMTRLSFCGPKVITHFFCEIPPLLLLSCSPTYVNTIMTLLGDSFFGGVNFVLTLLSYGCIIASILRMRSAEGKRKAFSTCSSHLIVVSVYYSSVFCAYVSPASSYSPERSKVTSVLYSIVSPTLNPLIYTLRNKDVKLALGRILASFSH
Chain of Olfr1258 (Q8VGN6 1-311): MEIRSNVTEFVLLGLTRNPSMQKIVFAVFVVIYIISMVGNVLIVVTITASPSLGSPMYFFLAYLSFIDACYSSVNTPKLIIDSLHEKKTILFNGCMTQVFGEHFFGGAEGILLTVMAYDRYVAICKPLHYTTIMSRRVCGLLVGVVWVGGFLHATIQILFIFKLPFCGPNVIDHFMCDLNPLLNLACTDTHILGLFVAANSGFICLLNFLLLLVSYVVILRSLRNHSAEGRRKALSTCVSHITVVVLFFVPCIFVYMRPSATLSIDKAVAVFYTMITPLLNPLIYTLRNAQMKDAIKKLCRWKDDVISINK

c1ccncc1 [pyridine]
increased amount of fluorescence intensity derived from Fluo-4 ([1]; IG04-13 cells, stimulation by pyridine): 195±70
Emax ([1]; read-out: relative value of increased Fluo-4 fluorescence intensity (high K+ ringer depolarization considered 100%)): 120 ± 6%
increased amount of fluorescence intensity derived from Fluo-4 [2]: 153±47
relative value of increased Fluo-4 fluorescence intensity (high K+ ringer depolarization considered 100%) ([2]; experiment independently carried out 5 times): 132±5%
EC50 [3]: ~5 mM

COc1cc(C=O)ccc1O [vanillin]
fluorescence intensity response of cells to the odor molecule [4]: increase in fluorescence intensity was observed in some cells

CCC(C)=O [2-butanone]
EC50 [5]: ~1.5 mM

CCCC(C)=O [2-pentanone]
increase in transient fluorescence intensity derived from Fluo-4 [6, 11]: 46±12
Emax [6, 12]: 74 ± 3%
increase in transient fluorescence intensity derived from Fluo-4 [7, 11]: 38±10
Emax [7, 12]: 67 ± 4%
EC50 [8]: ~4 mM
number of olfactory sensory neurons that reacted with the odor molecule [9]: approximately 100
EC50 [10]: 2.1 ± 0.6 mM
